The values that follow come from US12180466B2, “Plant tissue collection, RNA extraction and genetic analysis” (WINFIELD SOLUTIONS, LLC, priority 2018, dated 2024).

SMILES strings stand for the structures.

The subject of assay [1] is maize seeds. The assay can be described thus: Whole-genome RNA sequencing of tissue from PGR-treated germinating maize seeds/seedlings, gene expression relative to control. Type of assay: in vivo. The conditions noted are these: radicle, 144-hour timepoint. How it is done:
This study applied 5 different PGRs to separate treatment groups each comprised of 30 maize seeds. A negative control group of 30 maize seeds was exposed to a control solution devoid of any PGRs. The ability to germinate the seeds and harvest the desired tissues from the seeds and nascent seedlings at 5 timepoints was evaluated, and the total RNA extracted, sequenced and analyzed. […] Ten plates were prepared for each of the 6 groups evaluated (5 treatment groups+1 control group). Each test group included 5 subgroups, each subgroup corresponding to 1 of the 5 harvesting timepoints. Replicates of each subgroup were prepared, such that each of the 5 subgroups of seeds occupied two plates. Group 1 served as the untreated negative control group. Group 2 was treated with a first PGR composition (“PGR 1”) that includes active components containing 0.09 wt % cytokinin (kinetin), 0.03 wt % GA, and 0.045 wt % IBA. Group 3 was treated with kinetin. Group 4 was treated with GA. Group 5 was treated with IBA. […] Expression data for 39,460 different genes was obtained and analyzed to identify which genes were differentially expressed relative to control samples at the timepoints and tissue types sampled and in response to the different treatments applied to each test group.

For assay [2], the system named is maize seeds. The assay can be described thus: Germination of treated maize seeds and harvestability of tissue at timepoints (Maize Trial 1). The following applies: for non-harvestable seeds (did not germinate): 120-hour timepoint, subgroup 4, radicle and coleoptile. The class given is in vivo. As to the method:
This study applied 5 different PGRs to separate treatment groups each comprised of 30 maize seeds. A negative control group of 30 maize seeds was exposed to a control solution devoid of any PGRs. The ability to germinate the seeds and harvest the desired tissues from the seeds and nascent seedlings at 5 timepoints was evaluated, and the total RNA extracted, sequenced and analyzed. […] Ten plates were prepared for each of the 6 groups evaluated (5 treatment groups+1 control group). Each test group included 5 subgroups, each subgroup corresponding to 1 of the 5 harvesting timepoints. Replicates of each subgroup were prepared, such that each of the 5 subgroups of seeds occupied two plates. Group 1 served as the untreated negative control group. Group 2 was treated with a first PGR composition (“PGR 1”) that includes active components containing 0.09 wt % cytokinin (kinetin), 0.03 wt % GA, and 0.045 wt % IBA. Group 3 was treated with kinetin. Group 4 was treated with GA. Group 5 was treated with IBA. Group 6 was treated with a second PGR composition (“PGR 2”) that includes active components containing 0.11 wt % CPPA and 0.01 wt % cytokinin (kinetin). Stock solutions of the treatments were prepared, each including equal amounts of propylene glycol, which was used to dissolve the kinetin. The amount of each treatment substance applied per seed varied between, but not within, the treatment groups. As shown below in Table 1, the control group was untreated. Each seed within group 2 was treated with 1.2 μL of the PGR 1. Each seed within group 3 was treated with 1.14 μg of kinetin. Each seed within group 4 was treated with 0.572 μg of GA. Each seed within group 5 was treated with 0.381 μg of IBA. Each seed within group 6 was treated with 1.7 μL of PGR 2. The seeds in each group were incubated at 15.5° C. and harvested at 5 timepoints. The first subgroup within each group was harvested after 12 hours of incubation, the second subgroup after 24 hours, the third subgroup after 96 hours, the fourth subgroup after 120 hours, and the fifth subgroup after 144 hours. […]

On to `O=C(O)CCCc1c[nH]c2ccccc12` [IBA, indole-3-butyric acid], for which the “expression of gene coding for phosphopantothenate-cysteine ligase protein” value in assay [1] is “increased expression”. In assay [2] (144-hour timepoint, subgroup 5), the “seeds that did not germinate” value is given as 1 seeds.
Turning to `c1coc(CNc2ncnc3[nH]cnc23)c1` [group 3, kinetin], the “non-harvestable seeds (did not germinate)” value in assay [2] came to 2 seeds.
On the same count and under the same terms, as for `C=C1C[C@]23C[C@@]1(O)CC[C@H]2[C@@]12C=C[C@H](O)[C@@](C)(C(=O)O1)[C@H]2[C@@H]3C(=O)O` [group 4, gibberellic acid], the figure is 1 seeds.
